ChEMBL document CHEMBL5523682, “The formyl peptide receptors FPR1 and FPR2 as targets for inflammatory disorders: recent advances in the development of small-molecule agonists” (Eur J Med Chem, 2024)
Where a SMILES comes first, the peptide text is derived from it. The star is where a group is joined. For = O=C*

Legend:
[1] = molecular target: T1, N-formyl peptide receptor 2 (Homo sapiens, UniProt P25090); assay: Agonist activity at FPR2 (unknown origin) transfected in CHO cells by cAMP assay; format: functional, cell-based
T1 sequence (P25090 whole entry): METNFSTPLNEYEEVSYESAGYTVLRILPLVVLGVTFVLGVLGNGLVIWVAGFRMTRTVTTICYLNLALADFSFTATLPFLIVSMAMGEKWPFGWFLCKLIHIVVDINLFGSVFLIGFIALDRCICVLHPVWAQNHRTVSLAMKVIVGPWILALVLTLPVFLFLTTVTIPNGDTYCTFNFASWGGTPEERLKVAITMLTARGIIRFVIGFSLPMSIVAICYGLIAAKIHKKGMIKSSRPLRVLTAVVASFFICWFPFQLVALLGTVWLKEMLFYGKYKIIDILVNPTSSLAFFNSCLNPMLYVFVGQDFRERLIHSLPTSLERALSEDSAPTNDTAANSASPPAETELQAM

fMet-Leu-Phe receptor [2] = molecular target: T2, fMet-Leu-Phe receptor (Homo sapiens, UniProt P21462); assay: Agonist activity at FPR1 (unknown origin) transfected in CHO cells by cAMP assay; format: functional, cell-based
T2 sequence (P21462 whole entry): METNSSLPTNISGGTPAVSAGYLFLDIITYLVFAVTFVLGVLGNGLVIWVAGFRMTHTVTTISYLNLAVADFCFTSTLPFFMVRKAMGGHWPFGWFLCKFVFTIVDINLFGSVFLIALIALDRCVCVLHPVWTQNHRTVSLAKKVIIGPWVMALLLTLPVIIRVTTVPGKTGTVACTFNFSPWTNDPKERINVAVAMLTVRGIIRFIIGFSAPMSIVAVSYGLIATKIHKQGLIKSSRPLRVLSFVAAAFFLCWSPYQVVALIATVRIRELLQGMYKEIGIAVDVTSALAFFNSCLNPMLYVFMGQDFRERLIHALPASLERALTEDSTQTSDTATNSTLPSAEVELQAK

[3] = molecular target: T1, N-formyl peptide receptor 2; assay: Agonist activity at human FPR2; format: functional
fMet-Leu-Phe receptor [4] = molecular target: T2, fMet-Leu-Phe receptor; assay: Agonist activity at human FPR1; format: functional
fMet-Leu-Phe receptor [5] = molecular target: T3, fMet-Leu-Phe receptor (Mus musculus, UniProt P33766); assay: Agonist activity at mouse FPR1; format: functional
T3 sequence (P33766 whole entry): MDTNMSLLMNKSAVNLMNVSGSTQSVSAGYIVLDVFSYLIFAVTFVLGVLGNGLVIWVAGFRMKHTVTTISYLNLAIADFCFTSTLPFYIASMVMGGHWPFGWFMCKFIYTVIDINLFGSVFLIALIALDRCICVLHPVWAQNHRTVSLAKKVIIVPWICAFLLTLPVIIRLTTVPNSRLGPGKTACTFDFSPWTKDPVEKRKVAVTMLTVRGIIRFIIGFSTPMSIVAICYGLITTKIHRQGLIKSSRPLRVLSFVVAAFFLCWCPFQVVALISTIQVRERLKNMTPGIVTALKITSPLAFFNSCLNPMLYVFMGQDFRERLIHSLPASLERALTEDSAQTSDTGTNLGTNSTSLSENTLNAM

[6] = molecular target: T4, Formyl peptide receptor 2 (Mus musculus, UniProt O88536); assay: Agonist activity at mouse FPR2
T4 sequence (O88536 whole entry): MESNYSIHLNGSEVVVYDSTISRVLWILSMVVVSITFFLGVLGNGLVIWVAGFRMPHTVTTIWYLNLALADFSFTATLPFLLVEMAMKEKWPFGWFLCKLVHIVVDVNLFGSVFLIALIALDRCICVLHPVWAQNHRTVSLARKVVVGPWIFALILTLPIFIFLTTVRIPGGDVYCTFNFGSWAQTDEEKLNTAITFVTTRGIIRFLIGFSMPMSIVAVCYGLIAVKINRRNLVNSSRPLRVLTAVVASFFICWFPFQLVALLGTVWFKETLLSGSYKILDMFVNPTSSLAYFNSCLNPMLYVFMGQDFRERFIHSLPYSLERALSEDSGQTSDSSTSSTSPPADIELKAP

fMet-Leu-Phe receptor [7] = molecular target: T2, fMet-Leu-Phe receptor; assay: Agonist activity at FPR1 (unknown origin) transfected in CHO cells assessed as increase in calcium mobilization by Fluo-4AM dye based assay; format: functional, cell-based
[8] = molecular target: T1, N-formyl peptide receptor 2; assay: Agonist activity at FPR2 (unknown origin) transfected in CHO cells assessed as increase in calcium mobilization by Fluo-4AM dye based assay; format: functional, cell-based
[9] = molecular target: T1, N-formyl peptide receptor 2; assay: Agonist activity at FPR2 (unknown origin) in HEK293 cells; format: functional, cell-based
[10] = Oral bioavailability in human at 1 mg/kg; format: ADME, organism-based; conditions: in vivo
fMet-Leu-Phe receptor [11] = molecular target: T2, fMet-Leu-Phe receptor; assay: Agonist activity at FPR1 (unknown origin) transfected in human HL60 cells assessed as calcium mobilization incubated for 30 mins and measured for 15 mins by fluorometry method; format: functional, cell-based, HL-60
[12] = molecular target: T1, N-formyl peptide receptor 2; assay: Agonist activity at FPR2 (unknown origin) expressed in CHO cells assessed as Calcium mobilization incubated for 30 min by fluorometry method; format: functional, cell-based
[13] = Metabolic stability in rat liver microsomes assessed as compound remaining after 30 mins incubation; format: ADME, Microsome; conditions: read-out: Stability
fMet-Leu-Phe receptor [14] = molecular target: T3, fMet-Leu-Phe receptor; assay: Binding affinity to mouse FPR1 expressed in CHO cells assessed as dissociation constant; format: cell-based
[15] = molecular target: T1, N-formyl peptide receptor 2; assay: Binding affinity to human FPR2 expressed in CHO cells assessed as dissociation constant; format: cell-based
[16] = molecular target: T1, N-formyl peptide receptor 2; assay: Agonist activity at human FPR2 expressed in HL-60 cells by Fluo4-AM dye based intracellular calcium flux assay; format: functional, cell-based
fMet-Leu-Phe receptor [17] = molecular target: T2, fMet-Leu-Phe receptor; assay: Agonist activity against human FPR1 expressed in HL-60 cells by Fluo4-AM dye based intracellular calcium flux assay; format: functional, cell-based
[18] = Permeability of compound in PBS buffer at pH 5.5 by UPLC-MS spectrometry based PAMPA assay; format: ADME; conditions: read-out: permeability
[19] = Half life in rat liver microsomes measured upto 60 mins by LC-MS/MS analysis; format: ADME, Microsome; conditions: 1 h
[20] = Intrinsic clearance in rat liver microsomes; format: ADME, Microsome

## O=C(Nc1ccc(Br)cc1)[C@@H]1C2CCC([C@@H]1C(=O)O)C21CC1 (stereo partly drawn)
[1]
  EC50: 280 nM
fMet-Leu-Phe receptor [2]
  EC50: 2200 nM

## CC[C@H](C)[C@H](NC(=O)[C@@H](NC(=O)[C@H](Cc1ccccc1)NC(=O)[C@H](CC(C)C)NC(=O)[C@H](CCSC)NC=O)[C@@H](C)CC)C(=O)O (For-MLFII-OH)
[3]
  EC50: 3.8 nM
fMet-Leu-Phe receptor [4]
  EC50: 1400 nM
fMet-Leu-Phe receptor [5]
  EC50: 0.03 nM
[6]
  EC50: 910 nM

## CC(C)C[C@H](NC(=O)CNC(=O)Nc1ccc(Br)cc1)C(=O)OC(C)(C)C
fMet-Leu-Phe receptor [7]
  EC50: 2300 nM
[8]
  EC50: 600 nM

## O=C(NCc1ccc(Br)cc1F)[C@@H]1C2CCC([C@H]1C(=O)NC1CCNCC1F)C21CC1 (stereo partly drawn)
[9]
  EC50: 2 nM
[10]
  bioavailability: 12%

## Ac-AMVSEFLKQAWIENEEQEYVVQTVK-OH
fMet-Leu-Phe receptor [11]
  EC50: 1400 nM
[12]
  EC50: 1800 nM

## N#Cc1ccc(C[C@@H](NC(=O)Nc2ccc(F)cc2)C(=O)NCC2(c3ccc(F)c(Cl)c3)CC2)cc1
[13]
  remaining at 0.5 h: 20%

## CCCCC[C@H](O)[C@H](O)/C=C/C=C/C=C\C=C\[C@@H](O)CCCC(=O)O
fMet-Leu-Phe receptor [14]
  Kd: 1.5 nM
[15]
  Kd: 1.7 nM

## COc1cccc(Cc2cc(C)nn(CC(=S)Nc3ccccc3)c2=O)c1
[16]
  EC50: > 50000 nM
fMet-Leu-Phe receptor [17]
  EC50: > 50000 nM

## COc1cc(F)c([C@@H]2CNC(=O)[C@H]2Nc2cc(-c3ccc(Cl)cc3)no2)c(F)c1
[1]
  EC50: 10 nM
fMet-Leu-Phe receptor [2]
  EC50: 470 nM
[18]
  Papp: 110 ×10⁻⁶ cm/s

## O=C(NCc1ccc(Br)cc1F)[C@@H]1C2CCC([C@H]1C(=O)NC1CCNCC1)C21CC1 (stereo partly drawn)
[10]
  bioavailability: 0.3%

## N#Cc1ccc(C[C@H](NC(=O)Nc2ccc(F)cc2)C(=O)NCC2(c3ccc(F)c(Cl)c3)CC2)cc1
[19]
  t1/2: 48 min
[20]
  CLH: 15 µL/min/mg
